Reference: patent publication US20230085307A1, “PYRIDAZINONE COMPOUND AND HERBICIDE” (NISSAN CHEMICAL CORPORATION, priority 2019, published 2023)

Legend:
[1] = test system: oval-leafed pondweed; assay: Test Example 2: herbicidal activity, application during weed generation under submerged conditions (Table 17, symbol C); format: in vivo, oval-leafed pondweed (Monochoria vaginalis); settings: AAH 320 g/ha; application during weed generation, submerged conditions
Procedure, shortened: (§1)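 Steps: fill Wagner pots with alluvial soil; add water to give 4 cm depth; sow the species mixed; grow under glass at 25–30° C.; at 1–2 leaves apply water-diluted emulsion formulation to the water surface at a fixed herbicide amount; score after 3 weeks.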

[2] = test system: chickweed; assay: Test Example 5: herbicidal effect by foliage application, plastic box (Table 20, symbol P); format: in vivo, common chickweed (Stellaria media); settings: foliage application, evaluated three weeks after application
Procedure, shortened: (§2)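 Foliar spray test: emulsion formulation diluted in water to a set application rate, sprayed onto 14-day-old plants raised in diluvial soil at 25° C to 30° C under glass. Both herbicidal effect and crop effect rated visually three weeks later.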

[3] = test system: late watergrass; assay: Test Example 1: herbicidal activity, application before weed generation under submerged conditions (Table 16, symbol A); format: in vivo, late watergrass (Echinochloa oryzicola); settings: 320 g/ha applied herbicide
Procedure, shortened: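 Emulsion formulation, water-diluted to set dose, was put onto the flooded surface (4 cm depth, alluvial soil) the same day weeds were sown and 2.5-leaf rice transplanted. After 3 weeks at 25-30 °C under glass, each species was rated 0 (≤5% kill) to 5 (≥90% kill).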

[4] = test system: southern crabgrass; assay: Test Example 5: herbicidal effect by foliage application, plastic box (Table 20, symbol F); format: in vivo, southern crabgrass (Digitaria ciliaris); settings: foliage application, evaluated three weeks after application
Procedure, shortened: as §2

[5] = test system: Italian ryegrass; assay: Test Example 4: herbicidal effect by soil treatment (Table 19, symbol K); format: in vivo, Italian ryegrass (Lolium multiflorum); settings: amount of applied herbicide 320 g/ha
Procedure, shortened: (§3)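 Herbicidal effect was rated 3 weeks after treatment, using the scoring criteria of an earlier test. The compound, formulated as an emulsion and diluted in water to a set herbicide amount, had been sprayed uniformly on soil over freshly sown seeds. Growth took place in a greenhouse at 25° C. to 30° C.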

[6] = test system: green foxtail; assay: Test Example 5: herbicidal effect by foliage application, plastic box (Table 20, symbol G); format: in vivo, green foxtail (Setaria viridis); settings: foliage application, evaluated three weeks after application
Procedure, shortened: as §2

[7] = test system: southern crabgrass; assay: Test Example 4: herbicidal effect by soil treatment (Table 19, symbol F); format: in vivo, southern crabgrass (Digitaria ciliaris); settings: amount of applied herbicide 320 g/ha
Procedure, shortened: as §3

[8] = test system: wild oat; assay: Test Example 5: herbicidal effect by foliage application, plastic box (Table 20, symbol I); format: in vivo, wild oat (Avena fatua); settings: foliage application, evaluated three weeks after application
Procedure, shortened: as §2

[9] = test system: windgrass; assay: Test Example 5: herbicidal effect by foliage application, plastic box (Table 20, symbol L); format: in vivo, windgrass (Apera spica-venti); settings: foliage application, evaluated three weeks after application
Procedure, shortened: as §2

[10] = test system: blackgrass; assay: Test Example 4: herbicidal effect by soil treatment (Table 19, symbol J); format: in vivo, blackgrass (Alopecurus myosuroides); settings: amount of applied herbicide 320 g/ha
Procedure, shortened: as §3

[11] = test system: persian speedwell; assay: Test Example 5: herbicidal effect by foliage application, plastic box (Table 20, symbol R); format: in vivo, Persian speedwell (Veronica persica); settings: foliage application, evaluated three weeks after application
Procedure, shortened: as §2

[12] = test system: chickweed; assay: Test Example 4: herbicidal effect by soil treatment (Table 19, symbol P); format: in vivo, common chickweed (Stellaria media); settings: amount of applied herbicide 320 g/ha
Procedure, shortened: as §3

[13] = test system: redroot pigweed; assay: Test Example 4: herbicidal effect by soil treatment (Table 19, symbol N); format: in vivo, redroot pigweed (Amaranthus retroflexus); settings: amount of applied herbicide 320 g/ha
Procedure, shortened: as §3

[14] = test system: rice flat sedge; assay: Test Example 3: herbicidal effect by foliage application, Wagner pot (Table 18, symbol E); format: in vivo, rice flat sedge (Cyperus iria); settings: amount of applied herbicide 320 g/ha
Procedure, shortened: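 Plants were sown in alluvial soil held under 0.1–0.5 cm standing water and grown 14 days in a greenhouse at 25–30 °C. An emulsifiable formulation, water-diluted to the set dose, was then sprayed onto the foliage, and effects were scored three weeks later using previously defined criteria.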

[15] = test system: Japanese bulrush; assay: Test Example 2: herbicidal activity, application during weed generation under submerged conditions (Table 17, symbol B); format: in vivo, Japanese bulrush (Schoenoplectus juncoides); settings: AAH 320 g/ha; application during weed generation, submerged conditions
Procedure, shortened: as §1

[16] = test system: green foxtail; assay: Test Example 4: herbicidal effect by soil treatment (Table 19, symbol G); format: in vivo, green foxtail (Setaria viridis); settings: amount of applied herbicide 320 g/ha
Procedure, shortened: as §3

For `Cc1ccccc1C(=O)Oc1c(C)nn(C)c(=O)c1-c1c(-c2ccc(OC(F)F)cc2)sc2ccc(F)cc12` [2-285], the “herbicidal effect rating, C: oval-leafed pondweed” value (“herbicidal effect rating, C” for short) [1] was 0 (Herbicidal rate of 5% or less (almost no effect)), the “P: chickweed, herbicidal effect (criteria 0-5)” value ([2]; AAH 320 g/ha) was 5 (Herbicidal rate of 90% or more (almost completely withered)) and the “Herbicidal effect on A: late watergrass (grade 0-5)” value (“Herbicidal effect … (grade 0-5)” for short) [3] was 5 (Herbicidal rate of 90% or more (almost completely withered)). For the same compound, the “F: southern crabgrass, herbicidal effect (criteria 0-5)” value ([4]; AAH 320 g/ha) was 1 (Herbicidal rate of 5% or more and less than 20%), the “herbicidal effect on K: Italian ryegrass” value [5] was 2 (Herbicidal rate of 20% or more and less than 40%) and the “G: green foxtail, herbicidal effect (criteria 0-5)” value ([6]; AAH 320 g/ha) was 3 (Herbicidal rate of 40% or more and less than 70%). The “herbicidal effect on F: southern crabgrass” value [7] was 0 (Herbicidal rate of 5% or less (almost no effect)), the “I: wild oat, herbicidal effect (criteria 0-5)” value ([8]; AAH 320 g/ha) was 1 (Herbicidal rate of 5% or more and less than 20%) and the “L: windgrass, herbicidal effect (criteria 0-5)” value ([9]; AAH 320 g/ha) was 0 (Herbicidal rate of 5% or less (almost no effect)). The “herbicidal effect on J: blackgrass” value [10] was 0 (Herbicidal rate of 5% or less (almost no effect)), the “R: persian speedwell, herbicidal effect (criteria 0-5)” value ([11]; AAH 320 g/ha) was 5 (Herbicidal rate of 90% or more (almost completely withered)) and the “herbicidal effect on P: chickweed” value [12] was 3 (Herbicidal rate of 40% or more and less than 70%). For the same compound, the “herbicidal effect on N: redroot pigweed” value [13] was 0 (Herbicidal rate of 5% or less (almost no effect)), the “herbicidal effect on E: rice flat sedge” value [14] was 5 (Herbicidal rate of 90% or more (almost completely withered)) and the “herbicidal effect rating, B: Japanese bulrush” value (shortened to “herbicidal effect rating, B”) [15] was 3 (Herbicidal rate of 40% or more and less than 70%). The “herbicidal effect on G: green foxtail” value [16] was 0 (Herbicidal rate of 5% or less (almost no effect)).

In the case of `Cc1nn(C)c(=O)c(-c2c(-c3ccc(C#N)cc3)sc3ccc(Cl)cc23)c1O` [2-112], the “herbicidal effect rating, C” value [1] was 0 (Herbicidal rate of 5% or less (almost no effect)), the “herbicidal effect on P: chickweed” value ([2]; 320 g/ha) was 5 (Herbicidal rate of 90% or more (almost completely withered)) and the “Herbicidal effect … (grade 0-5)” value [3] was 0 (Herbicidal rate of 5% or less (almost no effect)). The “herbicidal effect on F: southern crabgrass” value ([4]; 320 g/ha) was 4 (Herbicidal rate of 70% or more and less than 90%), the “K: Italian ryegrass, herbicidal effect rating” value [5] was 5 (Herbicidal rate of 90% or more (almost completely withered)) and the “herbicidal effect on G: green foxtail” value ([6]; 320 g/ha) was 4 (Herbicidal rate of 70% or more and less than 90%). The “F: southern crabgrass, herbicidal effect rating” value [7] was 3 (Herbicidal rate of 40% or more and less than 70%), the “herbicidal effect on I: wild oat” value ([8]; 320 g/ha) was 5 (Herbicidal rate of 90% or more (almost completely withered)) and the “herbicidal effect on L: windgrass” value ([9]; 320 g/ha) was 5 (Herbicidal rate of 90% or more (almost completely withered)). For the same compound, the “J: blackgrass, herbicidal effect rating” value [10] was 3 (Herbicidal rate of 40% or more and less than 70%), the “herbicidal effect on R: persian speedwell” value ([11]; 320 g/ha) was 5 (Herbicidal rate of 90% or more (almost completely withered)) and the “P: chickweed, herbicidal effect rating” value [12] was 5 (Herbicidal rate of 90% or more (almost completely withered)). The “N: redroot pigweed, herbicidal effect rating” value [13] was 5 (Herbicidal rate of 90% or more (almost completely withered)), the “herbicidal effect on E: rice flat sedge” value [14] was 5 (Herbicidal rate of 90% or more (almost completely withered)) and the “herbicidal effect rating, B” value [15] was 0 (Herbicidal rate of 5% or less (almost no effect)). For the same compound, the “G: green foxtail, herbicidal effect rating” value [16] was 0 (Herbicidal rate of 5% or less (almost no effect)).

In the case of `Cc1nn(C)c(=O)c(-c2c(-c3ccc(SC(C)C)cc3)sc3ccc(F)cc23)c1O` [2-252], the “herbicidal effect rating, C” value [1] was 2 (Herbicidal rate of 20% or more and less than 40%), the “herbicidal effect on P: chickweed (criteria 0-5)” value ([2]; 320 g/ha) was 5 (Herbicidal rate of 90% or more (almost completely withered)) and the “Herbicidal effect … (grade 0-5)” value [3] was 3 (Herbicidal rate of 40% or more and less than 70%). The “herbicidal effect on F: southern crabgrass (criteria 0-5)” value ([4]; 320 g/ha) was 4 (Herbicidal rate of 70% or more and less than 90%), the “herbicidal effect on K: Italian ryegrass” value [5] was 3 (Herbicidal rate of 40% or more and less than 70%) and the “herbicidal effect on G: green foxtail (criteria 0-5)” value ([6]; 320 g/ha) was 4 (Herbicidal rate of 70% or more and less than 90%). For the same compound, the “herbicidal effect on F: southern crabgrass” value [7] was 2 (Herbicidal rate of 20% or more and less than 40%), the “herbicidal effect on I: wild oat (criteria 0-5)” value ([8]; 320 g/ha) was 4 (Herbicidal rate of 70% or more and less than 90%) and the “herbicidal effect on L: windgrass (criteria 0-5)” value ([9]; 320 g/ha) was 5 (Herbicidal rate of 90% or more (almost completely withered)). For the same compound, the “herbicidal effect on J: blackgrass” value [10] was 0 (Herbicidal rate of 5% or less (almost no effect)), the “herbicidal effect on R: persian speedwell (criteria 0-5)” value ([11]; 320 g/ha) was 5 (Herbicidal rate of 90% or more (almost completely withered)) and the “herbicidal effect on P: chickweed” value [12] was 5 (Herbicidal rate of 90% or more (almost completely withered)). The “herbicidal effect on N: redroot pigweed” value [13] was 5 (Herbicidal rate of 90% or more (almost completely withered)), the “herbicidal effect on E: rice flat sedge” value [14] was 5 (Herbicidal rate of 90% or more (almost completely withered)) and the “herbicidal effect rating, B” value [15] was 3 (Herbicidal rate of 40% or more and less than 70%). For the same compound, the “herbicidal effect on G: green foxtail” value [16] was 1 (Herbicidal rate of 5% or more and less than 20%).

In the case of `CCCC(=O)Oc1c(C)nn(C)c(=O)c1-c1c(-c2ccc(OC3CC3)cc2)sc2ccc(F)cc12` [2-218], the “herbicidal effect rating, C” value [1] was 3 (Herbicidal rate of 40% or more and less than 70%), the “herbicidal effect on P: chickweed (criteria 0-5)” value ([2]; 320 g/ha) was 5 (Herbicidal rate of 90% or more (almost completely withered)) and the “Herbicidal effect … (grade 0-5)” value [3] was 5 (Herbicidal rate of 90% or more (almost completely withered)). The “herbicidal effect on F: southern crabgrass (criteria 0-5)” value ([4]; 320 g/ha) was 0 (Herbicidal rate of 5% or less (almost no effect)), the “K: Italian ryegrass, herbicidal effect rating” value [5] was 4 (Herbicidal rate of 70% or more and less than 90%) and the “herbicidal effect on G: green foxtail (criteria 0-5)” value ([6]; 320 g/ha) was 2 (Herbicidal rate of 20% or more and less than 40%). The “F: southern crabgrass, herbicidal effect rating” value [7] was 0 (Herbicidal rate of 5% or less (almost no effect)), the “herbicidal effect on I: wild oat (criteria 0-5)” value ([8]; 320 g/ha) was 3 (Herbicidal rate of 40% or more and less than 70%) and the “herbicidal effect on L: windgrass (criteria 0-5)” value ([9]; 320 g/ha) was 5 (Herbicidal rate of 90% or more (almost completely withered)). The “J: blackgrass, herbicidal effect rating” value [10] was 0 (Herbicidal rate of 5% or less (almost no effect)), the “herbicidal effect on R: persian speedwell (criteria 0-5)” value ([11]; 320 g/ha) was 5 (Herbicidal rate of 90% or more (almost completely withered)) and the “P: chickweed, herbicidal effect rating” value [12] was 1 (Herbicidal rate of 5% or more and less than 20%). For the same compound, the “N: redroot pigweed, herbicidal effect rating” value [13] was 1 (Herbicidal rate of 5% or more and less than 20%), the “herbicidal effect on E: rice flat sedge” value [14] was 5 (Herbicidal rate of 90% or more (almost completely withered)) and the “herbicidal effect rating, B” value [15] was 3 (Herbicidal rate of 40% or more and less than 70%). For the same compound, the “G: green foxtail, herbicidal effect rating” value [16] was 0 (Herbicidal rate of 5% or less (almost no effect)).
